The target of one experiment is 2C9 (Homo sapiens, UniProt P11712). The experiment can be described thus: Cyp inhibition 2C9. To be noted: read-out: Cyps: 2C9. In kind it is in vitro ADME.
The target of the next experiment is hERG (Homo sapiens, UniProt Q12809). As to the kind of experiment: hERG. (In general: hERG is a cardiac potassium channel; its block is linked to QT prolongation.)
For the next experiment, the target named is USP7 (Homo sapiens, UniProt Q93009). As to the kind of experiment: TE (HCT116). In kind it is cell-based.
A further experiment deals with MMP-2. The experiment can be described thus: MMP-2 in supernatants of HDF and HUVEC co-culture (Luminex). In kind it is cell-based, human. To be noted: supernatants after 14 days. Here is the method:
Cell culture supernatants from tube formation were collected and MMP-2 levels were measured using Luminex®.
Next, the underlying mechanism of tube formation inhibition was investigated. […] To determine whether secretion of MMP-2 is modulated by USP7 inhibition, supernatants from HUVEC and HDF co-cultures were collected after 14 days.
(§1) Concentrations of MMP2 and MMP7 were determined in cell culture supernatants in triplicates using Luminex human cytokine/chemokine multiplex kits (Millipore, St. Charles, Mo., USA) according to the manufacturer's protocol.

Experiment [1] deals with primary fibroblasts, immortalized fibroblasts, cancer cells. As to the kind of experiment: Scratch wound cell invasion assay through Matrigel. Format: cell-based, human. How it is done:
The scratch wound cell invasion assay was used to measure the ability of indicated cells to invade through Matrigel® basement membrane. Pictures were taken every 2 hours over 4 days using a time-lapse microscope and wound closure over time is presented in charts.
(§2) 96-well ImageLock plates were coated with 0.1 mg/ml growth factor reduced Matrigel® and incubated for 1 h at 37° C. Cells were seeded a density of 10,000-40,000 cells/well in 100 μL/well and incubated overnight. Next day wounds were simultaneously created in all wells using the WoundMaker. After wounding, media was aspirated from each well and cells were washed twice with PBS. For invasion cells were overlayed with 50 μL of the Matrigel® top layer at 3mg/ml and incubated for 30 min at 37° C. […] Cell plates were placed into the IncuCyte live-cell analysis system and each well imaged using 10× objective every 2 hours for the total of 5-days. Images were analysed using IncuCyte scratch wound protocol and results presented as percentage of wound confluence.

In a further experiment the test system is VEGFA mRNA. The experiment can be described thus: RNA-seq of hypoxia activated HDF, VEGFA mRNA. Format: cell-based, human. How it is done:
Afterwards RNA was extracted and analysed by RNA-seq. […] To evaluate which signalling pathways are induced in hypoxia activated fibroblasts, a comparative pathway analysis was performed on of samples coming from both, non-activated (normoxia) and hypoxia activated primary fibroblasts.

In experiment [2] the test system is primary fibroblasts, cancer cells, immortalized fibroblasts. The experiment can be described thus: intracellular VEGF ELISA in cell lysates. Format: cell-based, human. To be noted: 48 h. Here is the method: For the co-culture experiments, 5×10^4 cancer cells were seeded in transwell in 0.5 mL complete growth medium and placed on the top of 0.1×10^6 fibroblasts plated in 12-well in 1 mL low serum growth media overnight. Following day cancer cells were washed with PBS and media replaced with reduced (1%) serum growth media. 0.5×10^6 PBMC were plated on top of fibroblasts, incubated for 45 min and activated with CD3 (1 μg/ml final concentration) and CD28 (5 μg/ml final concentration). […] Monoculture experiments, 0.1×10^6 cells were seeded in 12-well in 1 mL of complete growth media (cancer cells) or low serum growth media (fibroblasts) and incubated overnight. […] Afterwards, cell culture media was collected, cell debris were removed by centrifugation the concentration of VEGF in the cell culture supernatants was measured using the human/mouse VEGF immunoassay Quantikine ELISA kit (R&D systems, Minneapolis, Minn., USA) according to the manufacturer's instructions. For the intracellular VEGF detection, total protein concentration was determined by BCA (Pierce Chemical, USA) and VEGF levels determined using the same kit described above.
On the technique in general: ELISA stands for enzyme-linked immunosorbent assay.

The test system of a further experiment is HIF-1α. As to the kind of experiment: Ubiquitination assay, TUBE pull-down of polyubiquitinated HIF-1α. In kind it is cell-based, human. To be noted: HDF, hypoxia. How it is done: Given HIF-1α stability is known to be regulated at the protein level by ubiquitination, we investigated whether USP7 inhibition modulates HIF-1α polyubiquitination. […] Cells were harvested, lysed and polyubiquitinated proteins pulled down using two types of Tetra Ubiquitin Binding Entities (TUBES); with equal affinity for K48/K63 or 10 times more affinity for […]. Samples were analysed by immuno-blot using a HIF-1α antibody. […] These findings indicate that USP7 inhibition results in K48 polyubiquitination of HIF-1α and consequently, its proteasomal-mediated degradation.
Cells were lysed in a buffer containing 50 mM Tris-HCl, pH 7.5, 150 mM NaCl, 1 mM EDTA, 1% NP-40, 10% Glycerol, 50 mM NaF, 5 mM sodium pyrophosphate, 10 mM glycerol phosphate, 1 mM sodium orthovanadate, protease and phosphatase inhibitor tablet and 50 uM PR-619. Lysates were pre-cleared by centrifugation at 4° C. for 15 mins at 16,000× g and protein concentration determined using BCA method. 20 ul of samples was taken as input. Pre-cleared supernatant containing 0.5 mg of total protein was added to 20 ul equilibrated Agarose-TUBE 1 or TUBE 2 beads (Life Sensors) and incubated for 2 hours at 4° C. on a rocker platform. Beads were collected by low speed centrifugation (1000-5000× g, 4° C.) for 5 minutes and supernatant taken as FT. Beads were washed twice with 1 ml TBS-T (20 mM Tris-HCl, pH 8.0, 0.15M NaCl, 0.1% Tween-20) and collected by low speed centrifugation. Finally, beads were resuspended in 30 ul of SDS reducing sample buffer and boiled for 10 min at 95° C.

A further experiment has as its system MMP-7. The experiment can be described thus: MMP-7 in supernatants of HDF invasion assay (Luminex). Format: cell-based, human. To be noted: invading HDF, 96 hours. Here is the method: The scratch wound cell invasion assay was used to measure the ability of primary human fibroblasts to invade through Matrigel® basement membrane. Cell culture supernatants from invasion assay were collected after 96 hours and MMP-7 levels were measured using Luminex®.
To further explore whether USP7 inhibition modulates MMP levels in invading fibroblasts, cell culture supernatants from HDF invasion assay were collected and presence of various MMP was detected using Luminex® Multiplex assay.
as §1

In experiment [3] the test system is cancer cells, fibroblasts and endothelial cells. As to the kind of experiment: Scratch wound cell migration assay. In kind it is cell-based, human. Particulars: any of tested cells. How it is done: Pictures of wound closure were taken every 2 hours during a 4-day assay using a time-lapse microscope. Charts are displaying the percentage of wound closure over time.
as §2

Chain of USP7 (Q93009 whole entry): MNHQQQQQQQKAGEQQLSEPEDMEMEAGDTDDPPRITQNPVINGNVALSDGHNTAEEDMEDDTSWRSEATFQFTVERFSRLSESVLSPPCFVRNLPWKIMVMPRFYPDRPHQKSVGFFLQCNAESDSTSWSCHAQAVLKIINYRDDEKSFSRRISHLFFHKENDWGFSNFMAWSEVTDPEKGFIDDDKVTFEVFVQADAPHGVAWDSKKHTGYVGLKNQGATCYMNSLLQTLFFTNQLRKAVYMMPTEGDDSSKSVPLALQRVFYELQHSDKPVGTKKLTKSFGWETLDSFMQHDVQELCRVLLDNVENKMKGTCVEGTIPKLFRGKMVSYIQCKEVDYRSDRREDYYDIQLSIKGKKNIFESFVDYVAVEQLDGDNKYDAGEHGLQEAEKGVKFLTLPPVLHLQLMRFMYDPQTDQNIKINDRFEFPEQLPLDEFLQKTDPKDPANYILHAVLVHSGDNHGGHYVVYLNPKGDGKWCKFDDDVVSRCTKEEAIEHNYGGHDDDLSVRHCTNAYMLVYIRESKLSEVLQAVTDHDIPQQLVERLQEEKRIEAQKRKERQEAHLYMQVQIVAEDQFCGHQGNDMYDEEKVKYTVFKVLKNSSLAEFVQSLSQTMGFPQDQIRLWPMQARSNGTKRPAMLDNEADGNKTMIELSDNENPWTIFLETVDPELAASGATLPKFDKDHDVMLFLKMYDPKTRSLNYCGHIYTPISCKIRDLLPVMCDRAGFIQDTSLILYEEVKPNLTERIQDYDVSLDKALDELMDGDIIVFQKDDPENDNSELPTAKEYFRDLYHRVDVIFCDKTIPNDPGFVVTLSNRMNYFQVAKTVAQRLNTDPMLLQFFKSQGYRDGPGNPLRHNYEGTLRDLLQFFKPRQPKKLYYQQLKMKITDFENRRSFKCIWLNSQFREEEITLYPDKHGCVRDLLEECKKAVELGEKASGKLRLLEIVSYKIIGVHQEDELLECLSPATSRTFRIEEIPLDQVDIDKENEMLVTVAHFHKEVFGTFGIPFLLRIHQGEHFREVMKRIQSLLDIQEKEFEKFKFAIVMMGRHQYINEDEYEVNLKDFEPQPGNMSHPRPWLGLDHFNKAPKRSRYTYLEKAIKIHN
Chain of hERG (Q12809 whole entry): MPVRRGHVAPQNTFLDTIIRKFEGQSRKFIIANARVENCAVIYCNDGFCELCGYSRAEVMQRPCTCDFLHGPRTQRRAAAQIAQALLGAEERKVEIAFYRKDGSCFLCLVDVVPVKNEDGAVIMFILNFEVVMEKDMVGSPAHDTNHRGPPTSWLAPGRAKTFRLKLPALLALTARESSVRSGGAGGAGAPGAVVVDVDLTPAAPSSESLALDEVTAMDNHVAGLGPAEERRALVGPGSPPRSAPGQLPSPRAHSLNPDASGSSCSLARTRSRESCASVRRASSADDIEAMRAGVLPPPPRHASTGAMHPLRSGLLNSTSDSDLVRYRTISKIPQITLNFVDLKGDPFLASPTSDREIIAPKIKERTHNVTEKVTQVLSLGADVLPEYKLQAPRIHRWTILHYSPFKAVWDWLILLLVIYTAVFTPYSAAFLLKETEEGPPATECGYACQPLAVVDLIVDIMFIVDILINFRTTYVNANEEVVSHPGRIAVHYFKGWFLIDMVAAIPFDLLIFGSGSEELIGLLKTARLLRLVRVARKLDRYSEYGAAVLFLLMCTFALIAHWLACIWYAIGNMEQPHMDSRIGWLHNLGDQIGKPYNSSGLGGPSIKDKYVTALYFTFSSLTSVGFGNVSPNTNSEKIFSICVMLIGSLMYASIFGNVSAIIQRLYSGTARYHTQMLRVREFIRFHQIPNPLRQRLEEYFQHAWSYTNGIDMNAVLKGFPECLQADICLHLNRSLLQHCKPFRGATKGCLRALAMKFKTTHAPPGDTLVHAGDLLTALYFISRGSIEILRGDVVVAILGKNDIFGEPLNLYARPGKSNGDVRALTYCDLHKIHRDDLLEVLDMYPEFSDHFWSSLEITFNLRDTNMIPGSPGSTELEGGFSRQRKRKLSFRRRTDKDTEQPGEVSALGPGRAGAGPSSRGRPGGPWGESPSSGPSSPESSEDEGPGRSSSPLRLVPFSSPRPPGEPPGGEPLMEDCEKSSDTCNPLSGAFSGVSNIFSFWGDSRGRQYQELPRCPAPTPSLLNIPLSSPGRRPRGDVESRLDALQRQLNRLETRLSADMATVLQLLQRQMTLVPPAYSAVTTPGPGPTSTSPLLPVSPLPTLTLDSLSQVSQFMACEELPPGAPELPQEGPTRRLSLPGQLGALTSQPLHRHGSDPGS
Chain of 2C9 (P11712 whole entry): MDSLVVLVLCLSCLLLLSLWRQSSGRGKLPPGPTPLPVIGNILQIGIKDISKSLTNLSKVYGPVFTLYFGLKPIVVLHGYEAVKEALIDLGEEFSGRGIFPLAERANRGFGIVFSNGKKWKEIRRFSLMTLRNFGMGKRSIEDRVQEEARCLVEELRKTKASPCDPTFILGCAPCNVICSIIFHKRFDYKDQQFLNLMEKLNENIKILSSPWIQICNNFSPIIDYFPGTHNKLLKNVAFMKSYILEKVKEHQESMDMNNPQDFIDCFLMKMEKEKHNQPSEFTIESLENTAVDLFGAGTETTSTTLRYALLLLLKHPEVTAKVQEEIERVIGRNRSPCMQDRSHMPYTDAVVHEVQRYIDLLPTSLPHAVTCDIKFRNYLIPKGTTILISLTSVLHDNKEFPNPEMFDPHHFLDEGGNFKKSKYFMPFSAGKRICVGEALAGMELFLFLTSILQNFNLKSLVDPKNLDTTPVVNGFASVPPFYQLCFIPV

For `CC1(C(=O)N2CCC(O)(Cn3cnc4c(cc(Cl)n4-c4ccc5c(c4)CCO5)c3=O)CC2)CC1` [ADC-159, 6-Chloro-7-(2,3-dihydrobenzofuran-5-yl)-3-((4-hydroxy-1-(1-methylcyclopropane-1-carbonyl)piperidin-4-yl)methyl)-3,7-dihydro-4H-pyrrolo[2,3-d]pyrimidin-4-One], the values for the IC50 at 2C9 and on hERG were 11 µM and 15.6 µM, respectively. Also, the EC50 on USP7 was found to be 0.126 µM.
Take `C[C@H](CC(=O)N1CCC(O)(Cn2cnc3c(-c4ccc(CN)cc4)n(C)nc3c2=O)CC1)c1ccccc1` [AD-04, (R)-3-(4-(Aminomethyl)phenyl)-6-((4-hydroxy-1-(3-phenylbutanoyl)piperidin-4-yl)methyl)-2-methyl-2H-pyrazolo[4,3-d]pyrimidin-7(6H)-one]: the MMP-2 levels result with MMP-2 is on record as “decreases”. In addition, the “number of invading cells” value in experiment [1] (cancer cells and immortalized fibroblasts) was “did not change”. The “invasion through Matrigel basement membrane” value in [1] (primary fibroblast, compared to vehicle-treated cells) was “greatly reduced”. Besides, in the experiment on VEGFA mRNA (hypoxia, 24 hours), the “mRNA expression of anti-angiogenic short (191aa) isoform” value is “up-regulated”. In the experiment with VEGFA mRNA (hypoxia, 24 hours), the “mRNA expression of pro-angiogenic long (371aa) isoform” value is given as “strongly down-regulated”. Further, in the experiment on VEGFA mRNA (hypoxic conditions), the “VEGF mRNA levels” value is “down-regulated”. Besides, the “intracellular VEGF levels” value is on record as “not in cancer cells or immortalized fibroblasts” in experiment [2] (cancer cells or immortalized fibroblasts) and “decreases” in experiment [2] (primary fibroblast lysates). For the same compound, the “K63 specific polyubiquitination of HIF-1α” value with HIF-1α (versus DMSO control) is recorded as “no difference”. In addition, the “K63/K48 polyubiquitinated HIF-1α” value with HIF-1α (AD-04 1 μM, MG132 10 μM, 1 hour) is “enhanced the accumulation”. Moreover, in the experiment with MMP-7, the MMP-7 levels entry was “decreases”. Also, the “migration (scratch wound healing)” value in [3] is “did not modulate migration”.

One may read the EC50 as the concentration needed to bring the measured effect to its halfway point.
